{"source": "patent US20020137929A1", "about": "“1 - (3-heterocyclylphenyl) isothiourea, -isourea, -guanidine and -amidine herbicidal agents” (Intellectual Property Department, BASF Aktiengesellschaft, priority 1998, published 2002)", "key": {"ECHCG (Barnyardgrass)": {"tested_on": "ECHCG (Barnyardgrass)", "assay": "Postemergence herbicidal evaluation", "format": "in vivo, Echinochloa crus-galli", "details": "postemergence", "in_short": "(§1)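 ~2-wk seedlings; postemergence spray, 40 psi; vehicle 1:1 acetone:water + 0.5% Tween 20; rate ≈0.0156–0.500 kg/ha; greenhouse hold; scored 4–5 wk after treatment, 0–9 scale vs control; repeat tests averaged.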"}, "CASOB (Sicklepod)": {"tested_on": "CASOB (Sicklepod)", "assay": "Postemergence herbicidal evaluation", "format": "in vivo, Cassia obtusifolia", "details": "postemergence", "in_short": "as §1"}, "ORYSAT (Rice, Tebonnet)": {"tested_on": "ORYSAT (Rice, Tebonnet)", "assay": "Postemergence herbicidal evaluation", "format": "in vivo, Oryza sativa, (L.) Tebonnet", "details": "postemergence", "in_short": "as §1"}, "MOOVA (Monochoria)": {"tested_on": "MOOVA (Monochoria)", "assay": "Preemergence weed control under flooded paddy conditions", "format": "in vivo, Monochoria vaginalis", "details": "rated 3-4 weeks after treatment", "in_short": "(§2)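 Visual injury scored 0-9 against control three to four weeks post-treatment, greenhouse-grown. Application: acetone/water (50/50) solutions dosed directly into flood water (1.5-3 cm over silt loam, planted top 0.5 cm), roughly 0.0313 to 0.500 kg/ha active ingredient.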"}, "[1]": {"tested_on": "SAGPY (Arrowhead (Pygmaea))", "assay": "Preemergence weed control under flooded paddy conditions", "format": "in vivo, Sagittaria pygmaea", "details": "rated 3-4 weeks after treatment", "in_short": "as §2"}, "[2]": {"tested_on": "CHEAL (Lambsquarters, Common)", "assay": "Postemergence herbicidal evaluation", "format": "in vivo, Chenopodium album", "details": "postemergence", "in_short": "as §1"}, "CYPSE (Flatsedge)": {"tested_on": "CYPSE (Flatsedge)", "assay": "Postemergence weed control under flooded paddy conditions", "format": "in vivo, Cyperus serotinus", "details": "postemergence weeds, rated 3 to 4 weeks after treatment", "in_short": "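Weeds 3 to 5 cm tall and rice seedlings at the 1.5 to 2.5 leaf stage were flooded, with water held 1.5 to 3 cm above the soil. Compounds in 50/50 v/v aqueous/acetone went into the flood water at about 0.0313 to 0.500 kg/ha. Visual 0-9 ratings versus control were made 3 to 4 weeks later.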"}, "CYPIR (Rice Flatsedge)": {"tested_on": "CYPIR (Rice Flatsedge)", "assay": "Preemergence weed control under flooded paddy conditions", "format": "in vivo, Cyperus iria", "details": "rated 3-4 weeks after treatment", "in_short": "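Silt loam, seeds in top 0.5 cm; flood held 1.5-3 cm; test cpd as acetone/water 50/50 into flood water, ~0.0313-0.500 kg/ha a.i.; greenhouse 3-4 wk; visual 0-9 score vs control.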"}}, "data": [{"compound": "C=CCN1C(=O)C(CC(=O)NS(=O)(=O)c2ccccc2)SC1=Nc1cc(-n2c(=O)cc(C(F)(F)F)n(C)c2=O)c(F)cc1Cl", "note": "(stereo not drawn) [Compound 101, 3-Allyl-2-{{2-chloro-5-[3,6-dihydro-3-methyl-2,6-dioxo-4-(trifluoromethyl)-1(2H)-pyrimidinyl]-4-fluorophenyl}imino}-4-oxo-N-(phenylsulfonyl)-5-thiazolidineacetamide]", "values": [{"measurement": "Herbicidal rating ECHCG", "setting": "ECHCG (Barnyardgrass); rate 0.0156 kg/ha", "result": 1.0}, {"measurement": "Herbicidal rating ECHCG", "setting": "ECHCG (Barnyardgrass); rate 0.0313 kg/ha", "result": 2.0}, {"measurement": "Herbicidal rating ECHCG", "setting": "ECHCG (Barnyardgrass); rate 0.0625 kg/ha", "result": 3.0}, {"measurement": "Herbicidal rating ECHCG", "setting": "ECHCG (Barnyardgrass); rate 0.1250 kg/ha", "result": 5.0}, {"measurement": "Herbicidal rating CASOB", "setting": "CASOB (Sicklepod); rate 0.0156 kg/ha", "result": 0.0}, {"measurement": "Herbicidal rating CASOB", "setting": "CASOB (Sicklepod); rate 0.0313 kg/ha", "result": 0.0}, {"measurement": "Herbicidal rating CASOB", "setting": "CASOB (Sicklepod); rate 0.0625 kg/ha", "result": 2.0}, {"measurement": "Herbicidal rating CASOB", "setting": "CASOB (Sicklepod); rate 0.1250 kg/ha", "result": 3.0}, {"measurement": "Herbicidal rating ORYSAT", "setting": "ORYSAT (Rice, Tebonnet); rate 0.0156 kg/ha", "result": 2.5}, {"measurement": "Herbicidal rating ORYSAT", "setting": "ORYSAT (Rice, Tebonnet); rate 0.0313 kg/ha", "result": 3.0}, {"measurement": "Herbicidal rating ORYSAT", "setting": "ORYSAT (Rice, Tebonnet); rate 0.0625 kg/ha", "result": 4.0}, {"measurement": "Herbicidal rating ORYSAT", "setting": "ORYSAT (Rice, Tebonnet); rate 0.1250 kg/ha", "result": 4.0}, {"measurement": "MOOVA herbicidal effect rating", "setting": "MOOVA (Monochoria); 0.0313 kg/ha", "result": 5.0}, {"measurement": "MOOVA herbicidal effect rating", "setting": "MOOVA (Monochoria); 0.0625 kg/ha", "result": 5.0}, {"measurement": "MOOVA herbicidal effect rating", "setting": "MOOVA (Monochoria); 0.1250 kg/ha", "result": 7.0}, {"measurement": "MOOVA herbicidal effect rating", "setting": "MOOVA (Monochoria); 0.2500 kg/ha", "result": 9.0}, {"measurement": "MOOVA herbicidal effect rating", "setting": "MOOVA (Monochoria); 0.5000 kg/ha", "result": 9.0}, {"measurement": "SAGPY herbicidal effect rating", "setting": "[1]; 0.0313 kg/ha", "result": 0.0}, {"measurement": "SAGPY herbicidal effect rating", "setting": "[1]; 0.0625 kg/ha", "result": 0.0}, {"measurement": "SAGPY herbicidal effect rating", "setting": "[1]; 0.1250 kg/ha", "result": 0.0}, {"measurement": "SAGPY herbicidal effect rating", "setting": "[1]; 0.2500 kg/ha", "result": 2.0}, {"measurement": "SAGPY herbicidal effect rating", "setting": "[1]; 0.5000 kg/ha", "result": 4.0}, {"measurement": "Herbicidal rating CHEAL", "setting": "[2]; rate 0.0156 kg/ha", "result": 4.0}, {"measurement": "Herbicidal rating CHEAL", "setting": "[2]; rate 0.0313 kg/ha", "result": 4.0}, {"measurement": "Herbicidal rating CHEAL", "setting": "[2]; rate 0.0625 kg/ha", "result": 4.0}, {"measurement": "Herbicidal rating CHEAL", "setting": "[2]; rate 0.1250 kg/ha", "result": 7.0}, {"measurement": "Herbicidal rating CYPSE", "setting": "CYPSE (Flatsedge); Rate 0.0313 kg/ha", "result": 0.0}, {"measurement": "Herbicidal rating CYPSE", "setting": "CYPSE (Flatsedge); Rate 0.0625 kg/ha", "result": 0.0}, {"measurement": "Herbicidal rating CYPSE", "setting": "CYPSE (Flatsedge); Rate 0.1250 kg/ha", "result": 0.0}, {"measurement": "Herbicidal rating CYPSE", "setting": "CYPSE (Flatsedge); Rate 0.2500 kg/ha", "result": 0.0}, {"measurement": "Herbicidal rating CYPSE", "setting": "CYPSE (Flatsedge); Rate 0.5000 kg/ha", "result": 0.0}, {"measurement": "CYPIR herbicidal effect rating", "setting": "CYPIR (Rice Flatsedge); 0.0313 kg/ha", "result": 0.0}, {"measurement": "CYPIR herbicidal effect rating", "setting": "CYPIR (Rice Flatsedge); 0.0625 kg/ha", "result": 0.0}, {"measurement": "CYPIR herbicidal effect rating", "setting": "CYPIR (Rice Flatsedge); 0.1250 kg/ha", "result": 0.0}, {"measurement": "CYPIR herbicidal effect rating", "setting": "CYPIR (Rice Flatsedge); 0.2500 kg/ha", "result": 3.0}, {"measurement": "CYPIR herbicidal effect rating", "setting": "CYPIR (Rice Flatsedge); 0.5000 kg/ha", "result": 4.0}]}]}
